Test results from ChEMBL document CHEMBL5518215, “Unlocking Antibacterial Potential: Key-Site-Based Regulation of Antibacterial Spectrum of Peptides” (J Med Chem, 2024).

Legend:
[1] = test system: Escherichia coli; experiment: Antimicrobial activity against Escherichia coli K88 assessed as bacterial killing measured after 16 hrs incubation; assay type: functional
[2] = Cytotoxicity against mouse RAW264.7 cells assessed as cell survival rate measured after 8 hrs by MTT assay; assay type: toxicity, cell-based
[3] = test system: Escherichia coli; experiment: Antimicrobial activity against Escherichia coli 25922 assessed as absence bacterial growth measured after 18 to 24 hrs incubation in presence of 25% serum by NCCLS method; assay type: functional; details: time 18-24 hrs
[4] = test system: Erythrocyte; experiment: Hemolytic activity in human RBC at effective concentration measured after 1 hr by microplate reader analysis; assay type: toxicity, cell-based
[5] = test system: Escherichia coli; experiment: Antimicrobial activity against Escherichia coli 25922 assessed as absence bacterial growth measured after 18 to 24 hrs incubation in presence of ZnCl2 by NCCLS method; assay type: functional; details: time 18-24 hrs
[6] = Cytotoxicity against human HEK-293T cells assessed as cell survival rate measured after 8 hrs by MTT assay; assay type: toxicity, cell-based
[7] = Cytotoxicity against porcine IPEC-J2 cells assessed as cell survival rate measured after 8 hrs by MTT assay; assay type: toxicity, cell-based, Sus scrofa; details: pig
[8] = test system: Bacillus cereus; experiment: Antimicrobial activity against Bacillus cereus 1.932 assessed as absence bacterial growth measured after 18 to 24 hrs incubation by NCCLS method; assay type: functional; details: time 18-24 hrs
[9] = test system: Pseudomonas aeruginosa; experiment: Antimicrobial activity against Pseudomonas aeruginosa 27853 assessed as bacterial killing measured after 16 hrs incubation; assay type: functional
[10] = test system: Listeria monocytogenes; experiment: Antimicrobial activity against Listeria monocytogenes 1.10753 assessed as absence bacterial growth measured after 18 to 24 hrs incubation by NCCLS method; assay type: functional; details: time 18-24 hrs
[11] = test system: Escherichia coli; experiment: Antimicrobial activity against Escherichia coli 25922 assessed as absence bacterial growth measured after 18 to 24 hrs incubation in presence of NaCl by NCCLS method; assay type: functional; details: time 18-24 hrs
[12] = test system: Staphylococcus epidermidis; experiment: Antimicrobial activity against Staphylococcus epidermidis 12228 assessed as absence bacterial growth measured after 18 to 24 hrs incubation by NCCLS method; assay type: functional; details: time 18-24 hrs
[13] = test system: Staphylococcus aureus; experiment: Antimicrobial activity against Staphylococcus aureus 25923 assessed as bacterial killing measured after 16 hrs incubation; assay type: functional
[14] = test system: Salmonella typhimurium; experiment: Antimicrobial activity against Salmonella typhimurium C7731 assessed as bacterial killing measured after 16 hrs incubation; assay type: functional, Salmonella enterica subsp. enterica serovar Typhimurium; details: Salmonella enterica
[15] = test system: Staphylococcus aureus; experiment: Antimicrobial activity against Staphylococcus aureus 29213 assessed as absence bacterial growth measured after 18 to 24 hrs incubation by NCCLS m; assay type: functional; details: time 18-24 hrs
[16] = test system: Acinetobacter baumannii; experiment: Antimicrobial activity against Acinetobacter baumannii 1.6769 assessed as bacterial killing measured after 16 hrs incubation; assay type: functional
[17] = test system: Escherichia coli; experiment: Antimicrobial activity against Escherichia coli 25922 assessed as absence bacterial growth measured after 18 to 24 hrs incubation by NCCLS method; assay type: functional; details: time 18-24 hrs
[18] = test system: Escherichia coli; experiment: Antimicrobial activity against Escherichia coli 25922 assessed as bacterial killing measured after 16 hrs incubation; assay type: functional
[19] = test system: Escherichia coli; experiment: Antimicrobial activity against Escherichia coli 25922 assessed as absence bacterial growth measured after 18 to 24 hrs incubation in presence of NH4Cl by NCCLS method; assay type: functional; details: time 18-24 hrs
[20] = test system: Staphylococcus epidermidis; experiment: Antimicrobial activity against Staphylococcus epidermidis 12228 assessed as bacterial killing measured after 16 hrs incubation; assay type: functional
[21] = test system: Escherichia coli; experiment: Antimicrobial activity against Escherichia coli 25922 assessed as absence bacterial growth measured after 18 to 24 hrs incubation in presence of MgCl2 by NCCLS method; assay type: functional; details: time 18-24 hrs
[22] = test system: Pseudomonas aeruginosa; experiment: Antimicrobial activity against Pseudomonas aeruginosa 27853 assessed as absence bacterial growth measured after 18 to 24 hrs incubation by NCCLS method; assay type: functional; details: time 18-24 hrs
[23] = test system: Staphylococcus aureus; experiment: Antimicrobial activity against Staphylococcus aureus 29213 assessed as bacterial killing measured after 16 hrs incubation; assay type: functional
[24] = test system: Escherichia coli; experiment: Antimicrobial activity against Escherichia coli 25922 assessed as absence bacterial growth measured after 18 to 24 hrs incubation in presence of FeCl3 by NCCLS method; assay type: functional; details: time 18-24 hrs
[25] = test system: Enterococcus faecalis; experiment: Antimicrobial activity against Enterococcus faecalis 29212 assessed as bacterial killing measured after 16 hrs incubation; assay type: functional
[26] = test system: Salmonella typhimurium; experiment: Antimicrobial activity against Salmonella typhimurium 14028 assessed as absence bacterial growth measured after 18 to 24 hrs incubation by NCCLS method; assay type: functional, Salmonella enterica subsp. enterica serovar Typhimurium; details: Salmonella enterica, time 18-24 hrs
[27] = test system: Salmonella typhimurium; experiment: Antimicrobial activity against Salmonella typhimurium 14028 assessed as bacterial killing measured after 16 hrs incubation; assay type: functional, Salmonella enterica subsp. enterica serovar Typhimurium; details: Salmonella enterica
[28] = test system: Acinetobacter baumannii; experiment: Antimicrobial activity against Acinetobacter baumannii 1.6769 assessed as absence bacterial growth measured after 18 to 24 hrs incubation by NCCLS method; assay type: functional; details: time 18-24 hrs
[29] = test system: Bacillus cereus; experiment: Antimicrobial activity against Bacillus cereus 1.932 assessed as bacterial killing measured after 16 hrs incubation; assay type: functional
[30] = Antimicrobial activity against Salmonella pullorum C7913 assessed as bacterial killing measured after 16 hrs incubation; assay type: functional, Salmonella enterica subsp. enterica serovar Pullorum; details: Salmonella enterica
[31] = test system: Escherichia coli; experiment: Antimicrobial activity against Escherichia coli 25922 assessed as absence bacterial growth measured after 18 to 24 hrs incubation in presence of KCl by NCCLS method; assay type: functional; details: time 18-24 hrs
[32] = test system: Salmonella typhimurium; experiment: Antimicrobial activity against Salmonella typhimurium C7731 assessed as absence bacterial growth measured after 18 to 24 hrs incubation by NCCLS method; assay type: functional, Salmonella enterica subsp. enterica serovar Typhimurium; details: Salmonella enterica, time 18-24 hrs
[33] = Antimicrobial activity against Salmonella pullorum C7913 assessed as absence bacterial growth measured after 18 to 24 hrs incubation by NCCLS method; assay type: functional, Salmonella enterica subsp. enterica serovar Pullorum; details: Salmonella enterica, time 18-24 hrs
[34] = test system: Staphylococcus aureus; experiment: Antimicrobial activity against Staphylococcus aureus 29213 assessed as absence bacterial growth measured after 18 to 24 hrs incubation by NCCLS method; assay type: functional; details: time 18-24 hrs
[35] = Hemolytic activity in human RBC at effective concentration at 128 uM measured after 1 hr by microplate reader relative to control; assay type: toxicity, cell-based, Erythrocyte; details: human red blood cells (erythrocytes), read-out: Activity
[36] = test system: Escherichia coli; experiment: Antimicrobial activity against Escherichia coli 25922 assessed as absence bacterial growth measured after 18 to 24 hrs incubation in presence of 12.5% serum by NCCLS method; assay type: functional; details: time 18-24 hrs
[37] = test system: Escherichia coli; experiment: Antimicrobial activity against Escherichia coli 25922 assessed as absence bacterial growth measured after 18 to 24 hrs incubation in presence of 50% serum by NCCLS method; assay type: functional; details: time 18-24 hrs
[38] = test system: Enterococcus faecalis; experiment: Antimicrobial activity against Enterococcus faecalis 29212 assessed as absence bacterial growth measured after 18 to 24 hrs incubation by NCCLS method; assay type: functional; details: time 18-24 hrs
[39] = test system: Staphylococcus aureus; experiment: Antimicrobial activity against Methicillin-resistant Staphylococcus aureus 43300 assessed as absence bacterial growth measured after 18 to 24 hrs incubation by NCCLS method; assay type: functional; details: time 18-24 hrs
[40] = test system: Staphylococcus aureus; experiment: Antimicrobial activity against Methicillin-resistant Staphylococcus aureus 43300 assessed as bacterial killing measured after 16 hrs incubation; assay type: functional
[41] = test system: Escherichia coli; experiment: Antimicrobial activity against Escherichia coli K88 assessed as absence bacterial growth measured after 18 to 24 hrs incubation by NCCLS method; assay type: functional; details: time 18-24 hrs
[42] = test system: Listeria monocytogenes; experiment: Antimicrobial activity against Listeria monocytogenes 1.10753 assessed as bacterial killing measured after 16 hrs incubation; assay type: functional

In the case of H-CKLWLKGGKLWLKGGKLWLKG-NH2, the MBC [1] was 2 µM, the IC50 at 8 h [2] was 60.1 µM and the MIC [3] was > 32 µM. The HC10 [4] was > 128 µM, the MIC [5] was > 32 µM and the IC50 at 8 h [6] was > 64 µM. For the same substance, the IC50 at 8 h [7] was 14.3 µM, the MIC [8] was > 32 µM and the MBC [9] was > 32 µM. The MIC [10] was > 32 µM, the MIC [11] was > 32 µM and the MIC [12] was > 32 µM. The MBC [13] was > 32 µM, the MBC [14] was > 32 µM and the MIC [15] was > 32 µM. The MBC [16] was > 32 µM, the MIC [17] was > 32 µM and the MBC [18] was > 32 µM. The MIC [19] was > 32 µM, the MBC [20] was > 32 µM and the MIC [21] was > 32 µM. The MIC [22] was > 32 µM, the MBC [23] was > 32 µM and the MIC [24] was > 32 µM. The MBC [25] was > 32 µM, the MIC [26] was > 32 µM and the MBC [27] was > 32 µM. For the same substance, the MIC [28] was > 32 µM, the MBC [29] was > 32 µM and the MBC [30] was 2 µM. For the same substance, the MIC [31] was > 32 µM, the MIC [32] was > 32 µM and the MIC [33] was 2 µM. For the same substance, the MIC [34] was > 32 µM, the hemolysis at 1 h, 128 µM [35] was < 10% and the MIC [36] was 32 µM. The MIC [37] was > 32 µM, the MIC [38] was > 32 µM and the MIC [39] was > 32 µM. For the same substance, the MBC [40] was > 32 µM, the MIC [41] was 2 µM and the MBC [42] was > 32 µM.

With H-FKLWLKGGKLWLKGGKLWLKG-NH2 the MBC [1] was 1 µM, the IC50 at 8 h [2] was > 64 µM and the MIC [3] was > 32 µM. The HC10 [4] was 128 µM, the MIC [5] was 8 µM and the IC50 at 8 h [6] was > 64 µM. The IC50 at 8 h [7] was 20 µM, the MIC [8] was > 32 µM and the MBC [9] was 32 µM. For the same substance, the MIC [10] was > 32 µM, the MIC [11] was > 32 µM and the MIC [12] was > 32 µM. The MBC [13] was > 32 µM, the MBC [14] was > 32 µM and the MIC [15] was > 32 µM. It also gave an MBC [16] of 8 µM, an MIC [17] of 4 µM and an MBC [18] of 8 µM. The MIC [19] was 8 µM, the MBC [20] was > 32 µM and the MIC [21] was > 32 µM. For the same substance, the MIC [22] was 32 µM, the MBC [23] was 32 µM and the MIC [24] was 2 µM. The MBC [25] was > 32 µM, the MIC [26] was 4 µM and the MBC [27] was 16 µM. The MIC [28] was 8 µM, the MBC [29] was > 32 µM and the MBC [30] was 2 µM. The MIC [31] was 8 µM, the MIC [32] was > 32 µM and the MIC [33] was 2 µM. For the same substance, the MIC [34] was > 32 µM, the hemolysis at 1 h, 128 µM [35] was < 10% and the MIC [36] was 16 µM. For the same substance, the MIC [37] was > 32 µM, the MIC [38] was > 32 µM and the MIC [39] was 16 µM. The MBC [40] was > 32 µM, the MIC [41] was 1 µM and the MBC [42] was > 32 µM.

In the case of H-IKLWLKGGKLWLKGGKLWLKG-NH2, the MBC [1] was 2 µM, the IC50 at 8 h [2] was > 64 µM and the MIC [3] was > 32 µM. The HC10 [4] was > 128 µM, the MIC [5] was 16 µM and the IC50 at 8 h [6] was > 64 µM. The IC50 at 8 h [7] was 31.4 µM, the MIC [8] was > 32 µM and the MBC [9] was 8 µM. For the same substance, the MIC [10] was > 32 µM, the MIC [11] was > 32 µM and the MIC [12] was > 32 µM. The MBC [13] was > 32 µM, the MBC [14] was 32 µM and the MIC [15] was > 32 µM. For the same substance, the MBC [16] was 8 µM, the MIC [17] was 4 µM and the MBC [18] was 8 µM. For the same substance, the MIC [19] was 8 µM, the MBC [20] was > 32 µM and the MIC [21] was > 32 µM. For the same substance, the MIC [22] was 8 µM, the MBC [23] was > 32 µM and the MIC [24] was 16 µM. For the same substance, the MBC [25] was > 32 µM, the MIC [26] was 8 µM and the MBC [27] was 8 µM. For the same substance, the MIC [28] was 8 µM, the MBC [29] was > 32 µM and the MBC [30] was 2 µM. The MIC [31] was 4 µM, the MIC [32] was 8 µM and the MIC [33] was 2 µM. The MIC [34] was > 32 µM, the hemolysis at 1 h, 128 µM [35] was < 10% and the MIC [36] was > 32 µM. For the same substance, the MIC [37] was > 32 µM, the MIC [38] was > 32 µM and the MIC [39] was > 32 µM. The MBC [40] was > 32 µM, the MIC [41] was 2 µM and the MBC [42] was > 32 µM.
